We go through 89 molecules from a melting point compilation (Tetko et al.; mined from patent text by program, amines drawn as free bases though some values may be those of a salt).

As to `O=C(c1ccc(Cl)cc1)c1cccc2cc[nH]c12`, the melting point lay in the range of 148 to 149 °C. The figure for `COc1ccc(F)c2c1C(=O)c1ccncc1C2=O` is over 220 °C.

In turn, `CCSc1nc(Cl)c2sc3nc(-c4ccccc4)cc(C)c3c2n1` gave a melting point of 150 to 154 °C. As for `Cc1c(NC(=O)c2ccc(-c3ccc(Cl)cc3)nc2)ccc2cc(CN3CCCC3)cnc12`, the melting point is 234 to 236 °C. The figure for `CC1=C(C#CC2=C(/C=C/C(C)=C/C(=O)O)CCC2)C(C)(C)CCC1` is 173 to 174 °C; for `CCOC(=O)c1cn(-c2cnccn2)cn1` it is 128 to 129 °C. Regarding `CC(C)COC1C=CC(=O)N1S(=O)(=O)c1ccccc1` (centres undefined), the melting point fell in the range of 82 to 83 °C.

`O=S(=O)(NCCCN1CCC(Oc2ccc(Cl)c(Cl)c2)CC1)c1ccc(-c2ccccn2)s1` came in with a melting point of 115 °C. Next, `Cc1nc(C)c(Cl)c(NCCCSc2ccnc(CNc3nc(C)nc(C)c3Cl)c2C)n1`: 170 to 174 °C; `Clc1conc1OC1CN2CCC1CC2` (centres undefined): 68 to 69 °C. The figure for `CCOC(=O)C1=C(CO)NC(C)=C(C(=O)OCCO)C1c1ccccc1[N+](=O)[O-]` (centres undefined) is 167 to 169 °C. Next, `COc1ccc(Nc2nc(NCCNC(=O)OC(C)(C)C)nc(NC3CCCCCC3)n2)cc1Cl`: 94 °C. Consider `CCOC(=O)Cn1c2ccc(Cl)ccc-2c(C(C)=O)c1=O`, for which the melting point came out at 184 °C.

In turn, `O=C1c2ccccc2C(=O)N1C[C@@H](O)COc1ccc(Cl)cc1O` showed a melting point of 214 to 218 °C.

Consider `CCCc1nnc(-c2ccc(OC)cc2)s1`, for which the melting point was determined as 54 °C.

`O=C(c1ccc(Nc2ccnc3cc(C(F)(F)F)ccc23)cc1)N1CCN(c2ncccn2)CC1` came in with a melting point of 246 to 248 °C. The figure for `Cc1ccc(-c2c(Cl)ccc3c2C=C(C(=O)O)C(C(F)(F)F)O3)cc1` (centres undefined) is 218 to 220 °C; for `O=C1Nc2c(F)cc(CN3C(=O)CSC3=O)cc2C1=Cc1cc(CN2CCOCC2)c[nH]1` it is 246 to 248 °C; for `CCOC(=O)c1cc(NC(C)=O)cnc1C(=O)OCC` it is 108 to 110 °C. The figure for `CS(=O)(=O)N(c1nc(CN2CCN(C(c3ccccc3)c3ccccc3)CC2)cs1)S(C)(=O)=O` is 167 to 168 °C. The figure for `CCCc1cc(C(=O)OC)ccc1OCCCCCOc1ccc2c(c1CCC)OC(C(=O)OC)CC2` (centres undefined) is 63 to 64 °C; for `C#CC1(O)CCC2(C)C(CCC3C2CCC2(C)C(C(=O)CO)CCC32)C1` (centres undefined) it is 156 to 157 °C; for `Cn1ccc2cccc(C(=O)N3CCN(c4ncccn4)CC3)c21` it is 159 to 160 °C. As to `O=S1CCN(c2ccc(-n3cc(CN=C=S)nn3)cc2F)CC1`, the melting point lay within 182 to 184 °C. Consider `Clc1ccc(C(Cl)(Cl)Cl)cn1`, for which the melting point lay in the range of 51 to 54 °C. The molecule `C(#CCOCC#CCCn1cnc2cnc3ccccc3c21)CCn1cnc2cnc3ccccc3c21` came in with a melting point of 124 to 126 °C. Next, `COC(=O)c1cc(Cl)c(N=C2NCCN2C(C)=O)c(Cl)c1`: 188 to 189 °C; `O=C1Cc2cc(NCCCc3ccccc3)ccc2N1`: 120 to 122 °C. Turning to `Cn1c(C=O)c(-c2ccccc2)c2ccccc2c1=O`, the melting point was in the range of 181 to 182 °C. Next, `OCCCOc1ccc(Cl)cc1Cl`: 53 to 55 °C.

The molecule `COc1cc(C(C)C)c2c(c1)S(=O)(=O)N(COc1cc(C)nn1-c1ccc([N+](=O)[O-])cc1)C2=O` came in with a melting point of 196 to 198 °C. Consider `CN1C(=O)[C@H](NC(=O)CCNc2ccccc2)N=C(c2ccccc2)c2ccccc21`, for which the melting point was in the range of 218 to 221 °C. The figure for `COc1cc(CCC(=O)C2=C(Cl)CCC2)cc(OC)c1OC` is 93 °C. Next, `O=C(O)c1c[nH]c(Sc2cc(Cl)c(Cl)cc2Cl)c1`: 210 to 215 °C.

In turn, `CC1=C2C=c3c(cnn3CC(C)N=[N+]=[N-])=C2CC=C1` (racemic) returned a melting point of 70 to 72 °C. The figure for `Clc1ccc2ncc(Cl)n2n1` is 120 to 121 °C; for `O=C1NC(=O)c2c1c(-c1ccccc1Cl)cc1c2c(Br)cn1CCCN1CCCC1` it is 158 to 161 °C. The figure for `Cn1cc(S(C)(=O)=O)c(=O)c2ccc(C(C)(C)C)cc21` is 247 to 248 °C; for `Cc1c(C)c2c(c(C)c1O)CCC(C)(COc1ccc(CC3SC(=N)NC3=O)cc1)O2` (centres undefined) it is 205 to 207 °C; for `Cc1ccc(CCNC(=O)c2ccc3n2Cc2ccccc2N(C(=O)c2ccc(-c4ccccc4C)c(C)c2)C3)cc1` it is 161 to 163 °C. The figure for `Fc1ccc([C@H]2CC[C@H](N3CCN(Cc4ccc5ccccc5n4)CC3)CC2)cc1` is 160 to 162 °C. In the case of `Cc1ccc(S(=O)(=O)OCCCC(O)c2cccc3c(=O)c(C)c(-c4ccccc4)oc23)cc1` (centres undefined), the melting point was 123 to 124 °C. The figure for `CS(=O)(=O)c1cc(N)c([N+](=O)[O-])cc1N` is 221 °C; for `CCc1cccc(CC)c1N(CCl)C(=O)c1ccccc1` it is 98 to 99 °C. Molecule `CCOc1ccc(CCNC(=O)C(F)(F)F)cc1S(=O)(=O)N=CN(C)C` showed a melting point of 145 °C. Next, `O=C(NC[C@H]1CN(c2ccc(N3CCCC3=O)cc2)C(=O)O1)c1ccc(Cl)s1`: 229 °C. `Cc1cc(COc2ccc(S(=O)(=O)NC[C@@H](C(=O)NO)N3CCN(Cc4ccc(F)cc4)CC3)cc2)c2ccccc2n1` returned a melting point of 180 °C. Next, `COC(=O)[C@@H](CC(C)C)NC(=O)C[C@H]1O[C@H](c2cccc(OC)c2OC)c2cc(Cl)ccc2N(CC(CO)(OC)OC)C1=O`: 110 to 111 °C. As to `Cc1c(O)noc1C(=O)O`, the melting point is 257 to 259 °C. The figure for `O=CN(O)[C@@H](CN1C(=O)CNC1=O)CS(=O)(=O)c1ccc(Oc2ccc(OC(F)(F)F)cc2)cc1` is 154 °C; for `CCCCC(CC)COC(=O)C(C#N)=Cc1ccc(-c2nc3ccccc3o2)cc1` (centres undefined) it is 84 to 85 °C. Next, `CNc1nc(CO)c(-c2ccncc2)s1`: 216 to 218 °C; `C#Cc1cc2cccnc2c(-c2cccc([N+](=O)[O-])c2)n1`: 215 °C; `CC1Oc2ccc([N+](=O)[O-])cc2O1` (centres undefined): 84 to 95 °C. The figure for `CC=CCNc1cc(C(=O)O)cc(S(N)(=O)=O)c1-c1ccccc1` is 186 to 187 °C. `Fc1ccc(-c2cc(SC(F)(F)C(F)F)[nH]c2-c2ccc(F)cc2)cc1` had a melting point of 70.5 to 71 °C. As for `CC(C)(C)C(O)(C=Cc1ccc(Cl)cc1)n1cncn1` (centres undefined), the melting point fell in the range of 139 to 141 °C. The figure for `Nc1nc(=Nc2ccccc2)n2c(n1)sc1ccccc12` is over 250 °C; for `CN1C(=O)c2cccnc2N(C)c2nc(-c3ccc[nH]3)ccc21` it is 158 to 160 °C; for `CC(=O)OCC1OC(n2cnc(C(N)=O)c2Br)C(OC(C)=O)C1OC(C)=O` (centres undefined) it is 133 to 135 °C. Next, `COc1cc2c(cc1OCc1ccccc1)CCCCC2=O`: 95 to 96 °C; `Cc1noc(-c2ncn3c2[C@@H]2CCN2C(=O)c2c(Cl)cccc2-3)n1`: 239 to 240 °C; `NC(=O)C(Cl)(Cl)CC1(c2cc(Cl)cc(Cl)c2)CO1` (centres undefined): 130 to 133 °C. Next, `CC(=O)n1c(C(=O)O)cc2cc3c(cc21)OCO3`: 164 to 166 °C; `COc1c(-c2cc3c(s2)CCCC3=O)ccc2c(=O)c(C(=O)O)cn(C3CC3)c12`: 266 to 267 °C; `COc1ccc(Cn2c(Cl)nc3c(Cl)ncnc32)cc1`: 110 to 112 °C. As for `CC(C)c1ccc(C(=O)CC(c2ccccc2)c2ccccc2)c(C(C)C)c1OS(N)(=O)=O`, the melting point fell in the range of 149 to 152 °C. The figure for `c1ccc(-c2ccc3nc4c(nc3c2)-c2cccc3cccc-4c23)cc1` is 194 to 195 °C. `CCCCC(=N)NC(=O)Nc1ccccc1[N+](=O)[O-]` came in with a melting point of 130 to 132 °C. The figure for `CCCCc1cc2c(=O)n3cc(C(N)=O)ccc3nc2s1` is 266 to 267 °C. Regarding `Cc1c(NCC2CCCCO2)cc2oc(=O)[nH]c2c1F` (centres undefined), the melting point was found to be 166 °C. Next, `O=S(=O)(O)c1cccc(Cl)n1`: 274 to 275 °C.

In turn, `CS(=O)(=O)c1ccc(-c2cnn(-c3cc(F)cc(F)c3)c(=O)c2Oc2ccc(F)cc2)cc1` registered a melting point of 209 to 211 °C. The figure for `O=C(O)CCCCCCOc1cccc(-c2ccccc2)n1` is 74 to 75 °C; for `O=C(O)c1cc(S(=O)(=O)Cl)cc2c1OCCO2` it is 210 to 215 °C; for `COc1cc(C(C)C)c2c(c1OC)S(=O)(=O)NC2=O` it is 210 to 212 °C.

Molecule `COC(=O)c1c(F)cc(O)cc1F` came in with a melting point of 178 to 180 °C. Molecule `CCCCCc1c(C(C)C)nc(C(C)C)c(CNC)c1-c1ccc(F)cc1` displayed a melting point of 77 to 79 °C.

Molecule `Cc1ccc(N2C=NC(=O)C23CCN(Cc2ccccc2)CC3)cc1` returned a melting point of 208 to 213 °C. Next, `CCCCCCCCOc1ccc(-n2nc3ccc(C(F)(F)F)cc3n2)c(O)c1`: 79 to 81 °C; `Cc1cc(Cl)cc(C(=O)NCC2CC2)c1N`: 127 to 128 °C; `Oc1ccc(OCCCCCCCCOc2ccc(O)cc2)cc1`: 151 to 154 °C.

`CCCc1c(C(=O)C(C)C)c2ccc(NC(=O)NC)cc2n1Cc1ccccc1Cl` showed a melting point of 106 to 108 °C. The figure for `COc1cc(OC)c(/C=C/S(=O)(=O)Cc2ccc(OC)c([N+](=O)[O-])c2)c(OC)c1` is 186 to 187 °C; for `Nc1nc2c(c(Nc3ccc(F)c(Cl)c3)n1)-c1ccccc1C2` it is 232 to 233 °C; for `CCCN(CCCNc1ncc(Cc2ccc(C)nc2)c(=O)[nH]1)c1ccccn1` it is 83 to 90 °C. In turn, `CS(=O)(=O)c1ccc(-c2nc(C(F)(F)F)nc(Cl)c2-c2ccc(Cl)cc2)cc1` came in with a melting point of 188 to 190 °C. Next, `CC(C)(OCc1cc2cc(Cl)ccc2n1S(=O)(=O)c1ccc2c(c1)CCO2)C(=O)O`: 130 to 132 °C; `CC(C)c1ccc(C2(O)Cc3ccccc3C2=O)c(O)c1` (centres undefined): 144 to 146 °C.
